Data as given in patent publication US11465995B2, “Crystal and salt forms of tricyclic compound and preparation process thereof” (SHIJIAZHUANG SAGACITY NEW DRUG DEVELOPMENT COMPANY, LTD., priority 2018, dated 2022).
Several values for one entry are separate records, joined by “and”; a condition that tells them apart may be missing. Identical values can stand only once.

Assays:
S1P1 receptor = target: T1, S1P1 receptor (Homo sapiens, UniProt P21453); assay: S1P1 receptor agonistic activity test (PathHunter cell line); assay type: cell-based; details: agonist mode
T1 construct: expressed in transfected cells
Experimental: I. Cells Treatment • 1. PathHunter cell line was thawed according to standard procedures. • 2. The cells were inoculated in 20 μl 384-well microplates and incubated at 37° C. for appropriate time.
II. Agonist • 1. For the agonist assay, the cells were incubated with the testing sample to induce the reaction. • 2. The stock solution had been diluted 5 times with the buffer. • 3. 5 μl of 5-fold dilution was added into the cells, which were incubated at 37° C. for 90-180 min with the vehicle concentration of 1%.
III. Signal Detection • 1. 12.5 μl or 15 μl of PathHunter detection reagent at a volume ratio of 50% was added in one portion, then incubation at room temperature was performed for 1 h to generate detection signal. • 2. The PerkinElmer Envision™ instrument was used to read the microplate for chemiluminescence signal detection.
IV. Data Analysis • 1. CBIS data analysis kit was used to analyze the activity of the compound. • 2. Calculation formula: % Activity=100%×(average RLU of testing sample−average RLU of vehicle)/(average RLU of maximum control ligand−average RLU of vehicle) The results were shown in Table 3.

[1] = Pharmacokinetic evaluation in SD rats; assay type: in vivo; details: Sprague Dawley, rat, plasma, 3 mg/kg, male, intravenous injection and oral administration, Ozanimod at 3 mpk; for bioavailability: read-out: Bioavailability F (%); for AUC: read-out: Concentration Integration AUC; for half-life: read-out: Half-life T1/2 (converted)
Experimental: This Example is provided to test pharmacokinetics of compounds in SD rats.
Materials: Sprague Dawley rats (male, 200-300 g, 7-9 weeks, Shanghai SLAC)
Procedures: The rodent pharmacokinetic characteristics of the compound after intravenous injection and oral administration were tested according to standard protocol. In the test, the candidate compound was formulated as a clear solution, and the rats were given a single intravenous injection and oral administration. The intravenous and oral vehicles were a hydroxypropyl β cyclodextrin aqueous solution in a certain proportion or normal saline solution. The whole blood sample within 24 h was collected, centrifuged at 3000 g for 15 min, and the supernatant was separated to give the plasma sample. 4 volumes of acetonitrile solution containing internal standard was added to precipitate protein and after centrifugation the supernatant was collected and added with equal volume of water. After further centrifugation, the supernatant was used for injection. Quantitative analysis of blood drug concentration was done by LC-MS/MS analysis method and pharmacokinetic parameters were calculated, such as Cmax, Tmax, clearance, half-life, area under the curve of drug concentration-time, bioavailability, etc.

blood lymphocytes = assay: Effects of single oral administration on blood lymphocytes in rats; assay type: in vivo, SD rats; details: for Percentage of lymphocytes in white blood cells in a unit volume of blood (%) / Rate of change of lymphocytes in blood after administration (%): mean ± SEM
Experimental: Normal SPF grade male SD rats were administered by single oral gavage. The experiment contained five groups: the vehicle control group, the reference compound Ozanimod group, Compound 1-0.3 mg/kg dose group, Compound 1-1.0 mg/kg dose group, Compound 1-3 mg/kg dose group. Blood was collected 0.5 h before administration and 4, 8, 24 h after administration, and anticoagulated with 10% K2-EDTA. The anticoagulated blood sample was placed in 4° C. environment, diluted 1:4 with normal saline, and quickly tested with a hematology analyzer to calculate the number of lymphocytes per liter of blood and the percentage in the total white blood cells. Graphpad prism 6.0 software was used to calculate the mean±standard error, and the two-way ANOVA test was used to test the significance of the difference. When p<0.05, there was a significant difference between two groups.

[2] = system: TNBS-induced acute infectious bowel disease (IBD) model; assay: Pharmacodynamic test on TNBS-induced acute infectious bowel disease (IBD) model in female SD rats; assay type: in vivo; parameters: Ulcer score / Inflammation score / Total injury score: scale not given here; details: for Injury area (cm^2) / Ulcer area (cm^2) / Inflammation score / Total injury score / Ulcer score: mean ± sem; for Inflammation score / Total injury score / Ulcer score: colon pathological test
Experimental: Female SD rats were divided into 7 groups, that is, model group, prednisolone-10 mg/kg group, Ozanimod-0.3 mg/kg group, Ozanimod-1.0 mg/kg group, Compound 1-0.1 mg/kg group, Compound 1-0.3 mg/kg group, Compound 1-0.6 mg/kg group. All animals were deeply anesthetized with pentobarbital sodium, and TNBS-50% alcohol solution was inserted into the intestinal cavity from the anus for modeling. The animal's anus was squeezed, and the animal was allowed to stand upside down for 5 min. The animals were returned to the cage after assured to be leak free.
The test compounds were administered orally 1 h after modeling, once a day for 7 days. The model group was given an equal volume of drug vehicle. The animals were weighed daily before administration of the test compound and were monitored for daily fecal traits and given clinical observation scores. The day after the last administration, all animals were euthanized. The colons were collected (anal to nodular part), the length and weight of the colons were measured, and the gross anatomical scores of the lesion sizes was taken. The gross anatomical images of the colon lesions were recorded, and the tissues were fixed in 10% neutral formalin solution and were subjected to histopathological analysis.

[3] = Stability test of Crystal Form A solid (accelerated, 40° C./75% humidity, open); assay type: physicochemical
Experimental: Crystal Form A was placed in an opening container with constant temperature and humidity for accelerated test, under the conditions of 40° C./75% humidity (open). Samples were taken at 1st, 2nd, 3rd month for testing, and the test results were compared with initial results of day 0.

[4] = 1.0 mg/kg single oral, −0.5 h (before administration)
[5] = 0.1 mg/kg oral once a day for 7 days
[6] = 0.3 mg/kg oral once a day for 7 days
[7] = 0.6 mg/kg oral once a day for 7 days
[8] = 40° C./75% humidity (Open), 1 month
[9] = 40° C./75% humidity (Open), 2 months
[10] = 40° C./75% humidity (Open), 3 months
[11] = 1.0 mg/kg oral once a day for 7 days
[12] = 10 mg/kg oral once a day for 7 days

T1 sequence (P21453 whole entry): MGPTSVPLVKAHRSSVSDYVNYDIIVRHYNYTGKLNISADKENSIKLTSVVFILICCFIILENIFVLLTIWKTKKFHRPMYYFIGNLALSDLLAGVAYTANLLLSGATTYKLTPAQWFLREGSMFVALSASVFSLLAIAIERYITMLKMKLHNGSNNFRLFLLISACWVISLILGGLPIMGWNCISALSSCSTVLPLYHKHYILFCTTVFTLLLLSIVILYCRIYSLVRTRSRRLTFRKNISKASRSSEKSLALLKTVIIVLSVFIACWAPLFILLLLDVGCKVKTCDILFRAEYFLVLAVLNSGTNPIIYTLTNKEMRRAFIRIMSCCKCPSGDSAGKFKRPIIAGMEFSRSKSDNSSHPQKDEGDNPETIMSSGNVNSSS

## CC(C)Oc1ccc(-c2nc(-c3cccc4c3C[C@@H]3CC(=O)N(CCO)[C@H]43)no2)cc1C#N (single isomer, unassigned) [Compound 1]
S1P1 receptor
  EC50: < 10 nM
[1]
  clearance: 11.5 mL/min/kg
  bioavailability: 85.8%
  AUC: 6.83 µM·h
  half-life: 3.46 h
Blood lymphocytes; 0.3 mg/kg single oral, 4 h
  Percentage of lymphocytes in white blood cells in a unit volume of blood (%): 52.08 ± 3.35^&&& %
Blood lymphocytes; 0.3 mg/kg single oral, 4 h, vs same group before administration
  Rate of change of lymphocytes in blood after administration (%): −59.57 ± 2.01 %
Blood lymphocytes; 0.3 mg/kg single oral, 8 h
  maximum decreasing rate of the number of blood lymphocytes: 66.87%
  Percentage of lymphocytes in white blood cells in a unit volume of blood (%): 46.71 ± 3.72^*#&&&& %
  Rate of change of lymphocytes in blood after administration (%): −66.87 ± 1.97 %
Blood lymphocytes; 0.3 mg/kg single oral, 24 h
  blood lymphocyte decreasing rate: −44.98%
  Percentage of lymphocytes in white blood cells in a unit volume of blood (%): 63.86 ± 1.70%
  Rate of change of lymphocytes in blood after administration (%): 44.98 ± 16.62 %
Blood lymphocytes; 0.3 mg/kg single oral, −0.5 h (before administration)
  Percentage of lymphocytes in white blood cells in a unit volume of blood (%): 59.12 ± 2.19%
Blood lymphocytes; 1.0 mg/kg single oral, 4 h
  Percentage of lymphocytes in white blood cells in a unit volume of blood (%): 36.82 ± 2.33^****$$$ %
  Rate of change of lymphocytes in blood after administration (%): −71.25 ± 1.93 %
Blood lymphocytes; 1.0 mg/kg single oral, 8 h
  maximum decreasing rate of the number of blood lymphocytes: 83.09%
  Percentage of lymphocytes in white blood cells in a unit volume of blood (%): 29.89 ± 2.56^****$$$$ %
  Rate of change of lymphocytes in blood after administration (%): −83.09 ± 1.25 %
Blood lymphocytes; 1.0 mg/kg single oral, 24 h
  blood lymphocyte decreasing rate: 0.22%
  Percentage of lymphocytes in white blood cells in a unit volume of blood (%): 61.62 ± 1.61%
  Rate of change of lymphocytes in blood after administration (%): −0.22 ± 6.87^**#$$ %
Blood lymphocytes; [4]
  Percentage of lymphocytes in white blood cells in a unit volume of blood (%): 59.49 ± 1.01%
Blood lymphocytes; 3.0 mg/kg single oral, 4 h
  Percentage of lymphocytes in white blood cells in a unit volume of blood (%): 34.03 ± 3.81^****#$$$$ %
  Rate of change of lymphocytes in blood after administration (%): −78.97 ± 0.91 %
Blood lymphocytes; 3.0 mg/kg single oral, 8 h
  maximum decreasing rate of the number of blood lymphocytes: 85.92%
  Percentage of lymphocytes in white blood cells in a unit volume of blood (%): 26.19 ± 2.81^****$$$$ %
  Rate of change of lymphocytes in blood after administration (%): −85.92 ± 1.26 %
Blood lymphocytes; 3.0 mg/kg single oral, 24 h
  blood lymphocyte decreasing rate: 55.15%
  Percentage of lymphocytes in white blood cells in a unit volume of blood (%): 57.05 ± 2.49%
  Rate of change of lymphocytes in blood after administration (%): −55.15 ± 3.32^****$$$$& %
Blood lymphocytes; 3.0 mg/kg single oral, −0.5 h (before administration)
  Percentage of lymphocytes in white blood cells in a unit volume of blood (%): 62.35 ± 2.26%
[2]; [5]
  Injury area (cm^2): 6.09 ± 0.94 cm^2
  Ulcer area (cm^2): 2.42 ± 0.66 cm^2
[2]; [6]
  Injury area (cm^2): 5.34 ± 0.90 cm^2
  Ulcer area (cm^2): 2.18 ± 0.84 cm^2
[2]; [7]
  Injury area (cm^2): 3.42 cm^2 and 3.42 ± 0.73* cm^2
  Ulcer area (cm^2): 0.94 ± 0.55 cm^2
[2]; 0.6 mg/kg, compared to the model group
  symptoms of colon ulcers and edema (dissection at the end of the experiment): reduced compared to the model group
[2]; 0.1 mg/kg
  Inflammation score: 3.57 ± 0.20
  Total injury score: 6.14 ± 0.40
  Ulcer score: 2.57 ± 0.20
[2]; 0.3 mg/kg
  Inflammation score: 3.57 ± 0.37
  Total injury score: 6.14 ± 0.63
  Ulcer score: 2.57 ± 0.30

## CC(C)Oc1ccc(-c2nc(-c3cccc4c3C[C@@H]3CC(=O)N(CCO)[C@H]43)no2)cc1C#N [Crystal Form A]
[3]; [8]
  Appearance: White powder
  Content (%): 101.4%
  Total Impurity (%): 0.31%
[3]; [9]
  Appearance: White powder
  Content (%): 98.8%
  Total Impurity (%): 0.34%
[3]; [10]
  Appearance: White powder
  Content (%): 101.8%
  Total Impurity (%): 0.32%
[3]; 40° C./75% humidity (open), up to 3 months vs day 0
  amount of total impurity (change over the test): did not increase
[3]; Initial, 0 month
  Appearance: White powder
  Content (%): 101.6%
  Total Impurity (%): 0.33%

## CC(C)Oc1ccc(-c2nc(-c3cccc4c3CC[C@@H]4NCCO)no2)cc1C#N [Ozanimod, reference compound]
[1]
  clearance: 46.3 mL/min/kg
  bioavailability: 41.6%
  AUC: 1.12 µM·h
  half-life: 5.24 h
Blood lymphocytes; 1.0 mg/kg single oral, 4 h
  Percentage of lymphocytes in white blood cells in a unit volume of blood (%): 44.53 ± 3.75 %
  Rate of change of lymphocytes in blood after administration (%): −71.79 ± 2.51 %
Blood lymphocytes; 1.0 mg/kg single oral, 8 h
  maximum decreasing rate of the number of blood lymphocytes: 84.39%
  Percentage of lymphocytes in white blood cells in a unit volume of blood (%): 35.69 ± 2.47^****$ %
  Rate of change of lymphocytes in blood after administration (%): −84.39 ± 1.16 %
Blood lymphocytes; 1.0 mg/kg single oral, 24 h
  blood lymphocyte decreasing rate: 47.26%
  Percentage of lymphocytes in white blood cells in a unit volume of blood (%): 58.63 ± 2.17%
  Rate of change of lymphocytes in blood after administration (%): −47.26 ± 4.34 %
Blood lymphocytes; [4]
  Percentage of lymphocytes in white blood cells in a unit volume of blood (%): 58.67 ± 1.61%
[2]; [6]
  Injury area (cm^2): 4.76 ± 0.33 cm^2
  Ulcer area (cm^2): 1.12 ± 0.31 cm^2
[2]; [11]
  Injury area (cm^2): 4.60 ± 0.71 cm^2
  Ulcer area (cm^2): 1.36 ± 0.48 cm^2
[2]; 0.3 mg/kg
  Inflammation score: 3.71 ± 0.42
  Total injury score: 6.29 ± 0.75
  Ulcer score: 2.57 ± 0.37
[2]; 1.0 mg/kg
  Inflammation score: 3.43 ± 0.30
  Total injury score: 6.00 ± 0.58
  Ulcer score: 2.57 ± 0.30

## C[C@]12C=CC(=O)C=C1CC[C@@H]1[C@@H]2[C@@H](O)C[C@@]2(C)[C@H]1CC[C@]2(O)C(=O)CO [Prednisolone]
[2]; [12]
  Injury area (cm^2): 4.45 ± 0.82 cm^2
  Ulcer area (cm^2): 1.58 ± 0.53 cm^2
[2]; 10 mg/kg, compared to the model group
  colon ulcers (dissection at the end of the experiment): not reduced
[2]; 10 mg/kg
  Inflammation score: 3.00 ± 0.33
  Total injury score: 5.00 ± 0.63
  Ulcer score: 2.00 ± 0.38
